Measurements: PubChem BioAssay AID1996
≈ marks a conversion by molar mass, not a printed value.

Conditions: buffer; pH 7.4; 200.0 µM

| solubility kinetic [µg/mL] | Structure (SMILES) |
| --- | --- |
| 57.3 (≈ 147 µM) | O=C(c1ccc(=O)oc1)N1CCC(C(O)(c2ccccc2)c2ccccc2)CC1 |
| 31.3 (≈ 75.4 µM) | CN(c1ccccc1C(=O)NCc1ccccc1Cl)S(=O)(=O)c1ccccc1 |
| 19.2 (≈ 38.9 µM) | CCOC(=O)c1c(C)[nH]c(C(=O)COC(=O)CCNS(=O)(=O)c2ccc(NC(C)=O)cc2)c1C |
| > 54.3 | Cc1cccnc1NC(=O)CCNC(=O)c1ccc(Br)cc1 |
| 44.3 (≈ 142 µM) | O=CN1CCN(C(=S)NC(=O)c2ccc(Cl)cc2)CC1 |
| > 40.6 | S=C(NCC1CCCO1)Nc1cccc(Cl)c1 (stereo not drawn) |
| 14.7 (≈ 44 µM) | CCOC(=O)c1sc(NC(=O)Cc2ccccc2OC)nc1C |
| > 55 | CC(NC(=O)COC(=O)CN1C(=O)c2ccccc2C1=O)c1ccccc1 (stereo not drawn) |
| 34.3 (≈ 124 µM) | Cc1cccc(C2N=C(N)Nc3nc4ccccc4n32)c1 (stereo not drawn) |
| > 39.2 | O=C(Cc1ccsc1)Nc1ccc2c(c1)OCO2 |
| > 34.5 | Cc1cccc(-n2ccc(=O)c(C(=O)O)n2)c1 |
| < 0.6 | COc1cc2c(cc1OC)C(c1ccccc1C)CC(=O)N2 (stereo not drawn) |
| 0.7 (≈ 2.16 µM) | CN(C(=O)COC(=O)c1ccc(Cl)cc1N)C1CCCCC1 |
| 5.6 (≈ 20.1 µM) | CCOC(=O)c1csc(-c2ccc([N+](=O)[O-])cc2)n1 |
| < 0.4 | O=c1[nH]c(SCc2c(Cl)cccc2Cl)nc2ccccc12 |
| 0.6 (≈ 1.84 µM) | Cc1ccccc1NC(=S)N1CCN(c2ccccc2C)CC1 |
| > 43.4 | O=C(Nc1cccnc1N1CCOCC1)c1cccs1 |
| > 48 | Nc1ncnc2c1ncn2C1OC(C(=O)NC2CC2)C(O)C1O (stereo not drawn) |
| 41 (≈ 127 µM) | CC1CN(Cc2cc(=O)oc3cc(O)c(Cl)cc23)CC(C)O1 (stereo not drawn) |
| > 50.4 | Cn1cnnc1SCC(=O)NNC(=O)c1ccc([N+](=O)[O-])cc1 |
| > 51.1 | COc1cccc2[nH]c3c(N4CCC5(CC4)OCCO5)ncnc3c12 |
| > 37.5 | COc1nc(Nc2ccccc2F)nc(OC)n1 |
| 35.7 (≈ 136 µM) | CC1(c2ccc(OCC(N)=O)cc2)NC(=O)NC1=O (stereo not drawn) |

| solubility kinetic [µg/mL] | Structure (SMILES) |
| --- | --- |
| > 41.9 | Cc1sc(NC(=O)CN2CCOCC2)c(C#N)c1C |
| > 53 | CC(NC(=O)COC(=O)c1nc(Cl)ccc1Cl)c1ccccc1 (stereo not drawn) |
| < 0.3 | O=C(Nc1nc2ccc(Br)cc2s1)c1ccco1 |
| 41.1 (≈ 133 µM) | C1CN(c2nc3nonc3nc2N2CCSCC2)CCO1 |
| 34.3 (≈ 118 µM) | CC(=O)N1CCN(c2ccnc3cc(Cl)ccc23)CC1 |
| > 52.1 | CC(=C\c1ccccc1)/C=C1/SC(=S)N(CCCC(=O)O)C1=O |
| 4.9 (≈ 14 µM) | O=C(N/C=C/n1cnc2cc(C(F)(F)F)ccc21)c1ccccc1F |
| < 0.6 | O=C(Nc1ccc2ccccc2c1)c1ccccc1F |
| 3.6 (≈ 9.41 µM) | O=C(Nc1ccc2c(c1)OCO2)C1CC(=O)N(c2ccc3c(c2)OCCO3)C1 (stereo not drawn) |
| 39.8 (≈ 128 µM) | O=C(COC(=O)c1ccncc1)c1ccc(Cl)c(Cl)c1 |
| 36.5 (≈ 134 µM) | Cc1ccc(OCCNC(=O)c2ccccc2F)cc1 |
| 23.3 (≈ 69.1 µM) | Cc1c(C(=O)OCC(=O)N(C)Cc2ccccc2)oc2ccccc12 |
| 19.5 (≈ 80.1 µM) | Cc1ccccc1NC(=O)/C=C/c1cccs1 |
| 33.9 (≈ 119 µM) | CC(=O)c1ccn(S(=O)(=O)c2ccc(Cl)cc2)c1 |
| 0.3 (≈ 1.06 µM) | N=c1oc2ccccc2cc1C(=O)Nc1cccc(F)c1 |
| 37.9 (≈ 132 µM) | NC(=O)c1ccc(S(=O)(=O)N2CCSCC2)cc1 |
| 1.8 (≈ 3.75 µM) | CC(=O)c1ccccc1NC(=O)CSc1nc2ccccc2c(=O)n1CCCN1CCOCC1 |
| 10.1 (≈ 35.8 µM) | Cn1c(CNC(=O)c2ccccc2F)cc2ccccc21 |
| 13 (≈ 37.4 µM) | CCOC(=O)C1CCCN(S(=O)(=O)c2ccc3ccccc3c2)C1 (stereo not drawn) |
| 37 (≈ 98.8 µM) | CCOC(=O)c1c(/N=C/c2ccc(OC)cc2O)sc2c1CCN(C)C2 |
| > 48.4 | Cc1nc2ccc(NC(=S)NCc3ccccc3)cc2nc1C |
| > 38.7 | N#Cc1ccc(CSc2nc(N)cc(=O)[nH]2)cc1 |
| > 50.6 | O=C(COC(=O)CCC(=O)c1cccs1)NCc1cccs1 |

| solubility kinetic [µg/mL] | Structure (SMILES) |
| --- | --- |
| > 32.3 | Cn1cccc1C(=O)NCc1ccccn1 |
| 49.2 (≈ 149 µM) | CC(OC(=O)c1ccco1)C(=O)Nc1ncc(Cl)cc1Cl (stereo not drawn) |
| > 42.6 | Cn1ccnc1C(OC(=O)c1ccccc1)C(F)(F)F (stereo not drawn) |
| 19.9 (≈ 96.5 µM) | O=[N+]([O-])c1ccc(N2CCCCC2)cc1 |
| > 48.5 | COc1ccc(-n2nc(C)cc2Nc2ccccc2C(=O)O)cc1 |
| > 38.9 | Cn1nccc1C(=O)OCC(=O)Nc1ccccc1 |
| 2.5 (≈ 7.46 µM) | COc1ccc(-c2nc3ncccc3o2)cc1NC(=O)c1ccco1 |
| 41.1 (≈ 133 µM) | CC1CCN(C(=O)CCNC(=O)c2ccccc2Cl)CC1 |
| > 37.8 | O=C1OCCN/C1=C\C(=O)c1ccc(Cl)cc1 |
| 29.5 (≈ 99.5 µM) | O=c1c2sc(-c3ccccc3)cc2nc2n1CCCCC2 |
| 2.4 (≈ 7.05 µM) | CC(=O)c1c(COC(=O)c2ccc(F)cc2)nc2ccccc2[n+]1[O-] |
| 4.1 (≈ 13.2 µM) | CCOc1ccc(Nc2ncnc3ccc([N+](=O)[O-])cc23)cc1 |
| 2.2 (≈ 6.89 µM) | CC(C)[C@H](N[C@@H](C)c1ccccc1)c1c(O)ccc2ccccc12 |
| < 0.7 | CCCCCCCCC1CC(C(=O)Nc2ccccc2)C(=O)O1 (stereo not drawn) |
| > 77 | O=C(COC(=O)C12CC3CC(CC(O)(C3)C1)C2)Nc1ccc(Cl)c(S(=O)(=O)N2CCOCC2)c1 |
| > 45.6 | O=C(/C=C/c1ccc([N+](=O)[O-])cc1)OCC(=O)N1CCCC1 |
| 3.8 (≈ 11.4 µM) | CCOC(=O)c1cnc2ccc(C)cc2c1N(C)Cc1ccccc1 |
| 8.5 (≈ 28.5 µM) | O=C(NCCCCc1ccccc1)c1cccc([N+](=O)[O-])c1 |
| > 43.2 | O=C(Cc1ccc(Cl)cc1)NC1CCS(=O)(=O)C1 (stereo not drawn) |
| 35 (≈ 137 µM) | O=c1c2cc(Cl)cc(Cl)c2nc2n1CCC2 |
| > 50.8 | Cc1ccc(NC(=O)C2CCCN2C(=O)Oc2ccccc2)c(C)c1 (stereo not drawn) |
| > 50.8 | Cc1ccc(NC(=O)C2CC(Cl)=CCC2C(=O)O)c([N+](=O)[O-])c1 (stereo not drawn) |
| 36 (≈ 142 µM) | Cc1ccc(C)c(C(C)NC(=O)c2ccncc2)c1 (stereo not drawn) |

| solubility kinetic [µg/mL] | Structure (SMILES) |
| --- | --- |
| 17.5 (≈ 59.9 µM) | COC1=C/C(=C/c2c(O)c(C#N)c3ccccn23)C=CC1=O |
| > 56.4 | CC(C)(CC(=O)O)CC(=O)NCc1c(Cl)cccc1Oc1ccccc1 |
| > 51.7 | COCCCn1c(=O)c2sccc2n(Cc2ccccc2C)c1=O |
| > 48.1 | CCOC(=O)/C(C#N)=C/C1=C(N2CCOCC2)CC(C)(C)OC1 |
| 17.5 (≈ 49.7 µM) | O=C(NC1CCN(S(=O)(=O)c2ccc(F)cc2)CC1)c1ccco1 |
| > 55.4 | CC1(C)C2CCC1(C)C(OC(=O)C[n+]1ccccc1N)C2.[Br-] (stereo not drawn) |
| 48.8 (≈ 140 µM) | CCOP(=O)(c1ccc(N(C)C)cc1)C(O)c1ccc(OC)cc1 (stereo not drawn) |
| > 50.6 | CN(CC(=O)NC1CC1)S(=O)(=O)c1cc(Cl)ccc1Cl |
| 6.1 (≈ 17 µM) | Cc1cc(C)cc(NC(=O)NCC(O)COc2ccc([N+](=O)[O-])cc2)c1 (stereo not drawn) |
| 23.8 (≈ 77.4 µM) | O=C(CCc1ccccc1)NCC1(c2ccccc2)CCCC1 |
| 19.5 (≈ 51.7 µM) | C=CCOc1ccc(CN(C)CC(O)COc2cccc3ccccc23)cc1 (stereo not drawn) |
| 51.6 (≈ 142 µM) | Cc1onc(-c2ccccc2)c1CNS(=O)(=O)c1ccc(F)cc1F |
| < 0.3 | COC(=O)c1ccc(CO/N=C/c2cccc([N+](=O)[O-])c2)cc1 |
| > 49 | CC1CCCC(C)N1C(=O)COc1ccc([N+](=O)[O-])cc1Cl (stereo not drawn) |
| > 55.1 | COc1ccc(C(=O)C(C)OC(=O)CN2C(=O)c3ccccc3C2=O)cc1 (stereo not drawn) |
| > 43.8 | O=C(CSc1nncn1-c1ccccc1F)NC1CC1 |
| > 30.9 | CC(=O)Nc1sc2c(c1C#N)CCC2 |
| > 36.9 | Cc1ccc(CNC2CCCCC2)s1.Cl |
| 5.3 (≈ 17.5 µM) | Brc1ccc(OCc2cn3ccccc3n2)cc1 |
| 2.5 (≈ 7.71 µM) | CCOc1ccc(NC(=O)Nc2ccc3c(c2)nc(C)n3C)cc1 |
| 6.1 (≈ 17.8 µM) | CC(C)(C)c1ccccc1NC(=O)CN1C(=O)NC2(CCCC2)C1=O |
| 10.1 (≈ 27 µM) | COC(=O)c1ccc(NC(=O)CN2C(=O)NC3(CCC(C)CC3)C2=O)cc1 (stereo not drawn) |
| > 58.9 | COc1cc(CC(=O)N2CCN(C(=O)C3CCCO3)CC2)cc(OC)c1OC (stereo not drawn) |

| solubility kinetic [µg/mL] | Structure (SMILES) |
| --- | --- |
| > 46.6 | CN(C1CCCCC1)S(=O)(=O)c1ccc2[nH]c(=O)oc2c1 |
| 13.2 (≈ 41.6 µM) | Cn1c(SCC(=O)N2CCCC2=O)nc2ccccc2c1=O |
| 31.7 (≈ 117 µM) | Cc1ccc(OCCn2cnc(Cl)c2Cl)cc1 |
| 4.2 (≈ 11 µM) | CCOc1ccc(NC(=S)N2CCC(NC(=O)c3ccccc3)CC2)cc1 |
| 2.2 (≈ 7.02 µM) | COc1cc(SC)ccc1C(=O)Nc1ccc2c(c1)CCC2 |
| < 0.3 | Fc1ccccc1-c1nc(-c2ccc(Br)o2)no1 |
| > 50.2 | Cc1nc2ccccc2n1C1CCN(C(=O)Nc2ccccc2)CC1 |
| 48.1 (≈ 139 µM) | CC(=O)c1cccc(NC(=O)C2=CN3CCS(=O)(=O)N=C3C=C2)c1 |
| > 45 | Cc1nn(C)c(C)c1NS(=O)(=O)c1ccccc1Cl |
| < 0.7 | COc1cccc2cc(C(=O)NC(C)c3ccccc3)c(=O)oc12 (stereo not drawn) |
| < 0.6 | O=C1C=C(Nc2ccc(F)cc2)c2ccccc2C1=O |
| 41.6 (≈ 147 µM) | O=C(Nc1ccccc1)OC1CCCCc2cccnc21 (stereo not drawn) |
| 30.9 (≈ 90.3 µM) | CCC(=O)N=c1ccn(C2=Nc3ccccc3NC2=C(C#N)C#N)cc1 |
| 32.5 (≈ 109 µM) | CCCC(=O)C1=C(N(C)c2ccccc2)CC(C)(C)CC1=O |
| 52.4 (≈ 142 µM) | N#Cc1ccccc1COC(=O)CCN=C1NS(=O)(=O)c2ccccc21 |
| > 51.1 | Cc1ccc(S(=O)(=O)N(C)CC(=O)N2CC(C)OC(C)C2)cc1 (stereo not drawn) |
| > 46.9 | N#CCCN(Cc1cccnc1)C(=S)NC1CC2C=CC1C2 (stereo not drawn) |
| > 46.6 | Cn1ccsc1=NC(=O)c1ccc(CS(C)(=O)=O)cc1 |
| 13 (≈ 42.4 µM) | Cc1cc(C(=O)COC(=O)c2cccnc2Cl)c(C)n1C |
| 0.6 (≈ 1.9 µM) | O=C(Nc1nc2ccccc2[nH]1)c1cccc(Br)c1 |
| 5.2 (≈ 15.3 µM) | COc1ccc(C(=O)N[C@H](C(=O)NCc2ccccc2)C(C)C)cc1 |

| Structure (SMILES) | solubility kinetic [µg/mL] |
| --- | --- |
| Cc1ccc(NS(=O)(=O)c2cc(C(=O)N(C)C3CCN(C)CC3)ccc2Cl)cc1Cl.O=C(O)C(=O)O | > 84.1 |
| Cn1cc(C(=O)OCC(=O)N2CCCCC2)c2ccccc21 | > 45.1 |
| Cl.Fc1ccccc1CNC1CN2CCC1CC2 (stereo not drawn) | > 46.1 |
| CN1CCN(c2ccc(C(F)(F)F)cc2N)CC1 | > 38.9 |
| CN(C)CCOc1cccc(Br)c1.O=C(O)C(=O)O | 44.6 |
